Assay results as given in patent US20060211755A1, “3-oxo-1, 3-dihydro-indazole-2-carboxylic acid amide derivatives as phospholipase inhibitors” (Eli Lilly and Company Patent Division, priority 2003, published 2006).

| Structure (SMILES) | melting point |
| --- | --- |
| CCCn1c2c(C(=O)O)cccc2c(=O)n1C(=O)NCc1c(C)cccc1CC [Example 81, 2-(2-Ethyl-6-methyl-benzylcarbamoyl)-3-oxo-1-propyl-2,3-dihydro-1H-indazole-7-carboxylic acid] | > 250 °C |
| CCCCCCNC(=O)n1[nH]c2cccc(C(=O)O)c2c1=O [Example 78, 2-Hexylcarbamoyl-3-oxo-2,3-dihydro-1H-indazole-4-carboxylic acid] | > 250 °C |
| CCc1cccc(C)c1CNC(=O)n1c(=O)c2cccc(C(=O)O)c2n1CC [Example 80, 1-Ethyl-2-(2-ethyl-6-methyl-benzylcarbamoyl)-3-oxo-2,3-dihydro-1H-indazole-7-carboxylic acid] | > 250 °C |
| Cc1ccccc1CNC(=O)n1[nH]c2ccccc2c1=O [Example 16, 3-Oxo-1,3-dihydro-indazole-2-carboxylic acid 2-methyl-benzylamide] | 166 to 168 °C |
| CCc1cccc(C)c1CNC(=O)n1c(=O)c2cccc(C(=O)O)c2n1CC(=O)O [Example 82, 1-Carboxymethyl-2-(2-ethyl-6-methyl-benzylcarbamoyl)-3-oxo-2,3-dihydro-1H-indazole-7-carboxylic acid] | 172 to 174 °C |
| Cc1ccc(F)cc1CNC(=O)n1[nH]c2cccc(C(=O)O)c2c1=O [Example 57, 2-(5-Fluoro-2-methyl-benzylcarbamoyl)-3-oxo-2,3-dihydro-1H-indazole-4-carboxylic acid] | 230 °C (dec.) |
| Cc1ccccc1CNC(=O)n1[nH]c2ccc(C(=O)O)cc2c1=O [Example 53, 2-(2-Methyl-benzylcarbamoyl)-3-oxo-2,3-dihydro-1H-indazole-5-carboxylic acid] | > 250 °C |
| CCc1cccc(CC)c1CNC(=O)n1[nH]c2c(C(=O)O)cccc2c1=O [Example 70, 2-(2,6-Diethyl-benzylcarbamoyl)-3-oxo-2,3-dihydro-1H-indazole-7-carboxylic acid] | > 250 °C |
| CC(C)CCCCNC(=O)n1[nH]c2ccccc2c1=O [Example 5, 3-Oxo-1,3-dihydro-indazole-2-carboxylic acid (5-methyl-hexyl)-amide] | 134 to 136 °C |
| Cc1cccc(C)c1CNC(=O)n1[nH]c2c(C(=O)O)cccc2c1=O [Example 60, 2-(2,6-Dimethyl-benzylcarbamoyl)-3-oxo-2,3-dihydro-1H-indazole-7-carboxylic acid] | > 250 °C |
| COc1cccc(CNC(=O)n2[nH]c3ccccc3c2=O)c1 [Example 24, 3-Oxo-1,3-dihydro-indazole-2-carboxylic acid 3-methoxy-benzylamide] | 186 to 188 °C |
| CCc1cccc(C)c1CNC(=O)n1c(=O)c2cccc(C(=O)O)c2n1C [Example 79, 2-(2-Ethyl-6-methyl-benzylcarbamoyl)-1-methyl-3-oxo-2,3-dihydro-1H-indazole-7-carboxylic acid] | > 250 °C |
| Cc1ccc(F)cc1CNC(=O)n1[nH]c2c(C(=O)O)cccc2c1=O [Example 58, 2-(5-Fluoro-2-methyl-benzylcarbamoyl)-3-oxo-2,3-dihydro-1H-indazole-7-carboxylic acid] | > 250 °C |
| CCc1cccc(C)c1CNC(=O)n1[nH]c2cccc(C(=O)O)c2c1=O [Example 61, 2-(2-Ethyl-6-methyl-benzylcarbamoyl)-3-oxo-2,3-dihydro-1H-indazole-4-carboxylic acid] | > 250 °C |
| Cc1ccc2c(=O)n(C(=O)NCc3ccccc3C)[nH]c2c1 [Example 45, 6-Methyl-3-oxo-1,3-dihydro-indazole-2-carboxylic acid 2-methyl-benzylamide] | 235 °C (dec.) |
| CCc1cccc(C)c1CNC(=O)n1c(=O)c2cccc(C(=O)O)c2n1CC(=O)OC [Example 83, 2-(2-Ethyl-6-methyl-benzylcarbamoyl)-1-methoxycarbonylmethyl-3-oxo-2,3-dihydro-1H-indazole-7-carboxylic acid] | 220 to 222 °C |
